Data taken from patent publication EP0426225A2, “(6,7-dihydro-5H-pyrrolo[1,2-c]-imidazol-5-yl)- and (5,6,7,8-tetrahydroimidazo[1,5-a]pyridin-5-yl) substituted 1H-benzotriazole derivatives” (JANSSEN PHARMACEUTICA N.V., priority 1989, dated 1991).
Structures can show the parent of a compound that is named as a salt. Where two headings read alike, the source gives them in different places.

Experiments:
[1] = target: T1, aromatase (Homo sapiens, UniProt P11511); assay: In vitro inhibition of the aromatase activity test (conversion of 1,2[3H]-androstenedione into estrone and estradiol, human placental microsomes); assay type: biochemical; conditions: 30 min at 37°C, concentration required to obtain 50% inhibition of the estrogen synthesis, read-out: Aromatase in vitro IC₅₀
T1 construct: from tissue; host or cells: human placental microsomes
T1 sequence (P11511 1-503): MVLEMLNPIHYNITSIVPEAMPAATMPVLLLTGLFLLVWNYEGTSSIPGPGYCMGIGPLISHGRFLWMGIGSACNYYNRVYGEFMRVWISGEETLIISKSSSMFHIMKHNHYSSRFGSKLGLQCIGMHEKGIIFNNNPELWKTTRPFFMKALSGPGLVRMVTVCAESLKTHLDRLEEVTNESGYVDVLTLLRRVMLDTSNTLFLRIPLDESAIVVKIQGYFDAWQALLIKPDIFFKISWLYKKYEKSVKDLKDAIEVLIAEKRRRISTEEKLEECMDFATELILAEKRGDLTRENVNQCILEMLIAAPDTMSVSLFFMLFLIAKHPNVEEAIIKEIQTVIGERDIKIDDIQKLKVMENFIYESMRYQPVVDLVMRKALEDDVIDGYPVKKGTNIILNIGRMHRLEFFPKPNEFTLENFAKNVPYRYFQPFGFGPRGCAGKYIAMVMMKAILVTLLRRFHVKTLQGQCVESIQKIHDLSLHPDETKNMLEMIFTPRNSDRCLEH
Protocol: Human placental microsomes were diluted in potassium phosphate buffer (0.1M, pH 7.4) to give about 50% conversion of androgens to estrogens (protein content : about 0.5 mg). Four ml human placental microsomes were incubated in a final volume of 5 ml with 0.2 µCi 1,2[³H]-androstenedione, 2 µg androstenedione and 5 µl of test compound and/or dimethylsulfoxide (DMSO). […] The reaction was initiated by the addition of androstenedione and proceeded for 30 min at 37°C. During the incubation period, the mixtures were gassed with air. In this assay, aromatization of androstenedione results in the production of [3H]-H₂O which is isolated by extracting the samples with chloroform to remove the free steroid.

[2] = target: T2, aromatase (Rattus norvegicus, UniProt P22443); assay: In vivo inhibition of the aromatase activity (plasma estradiol in PMSG-injected immature female rats); set-up: species or system Wistar rats; conditions: read-out: Aromatase in vivo % inhibition at 1 mg/kg
T2 construct: Immature female Wistar rats weighing 120 g were injected subcutaneously; from tissue; host or cells: whole animal: immature female Wistar rats primed with PMSG (endogenous, mainly ovarian, aromatase by own knowledge)
T2 sequence (P22443 1-508): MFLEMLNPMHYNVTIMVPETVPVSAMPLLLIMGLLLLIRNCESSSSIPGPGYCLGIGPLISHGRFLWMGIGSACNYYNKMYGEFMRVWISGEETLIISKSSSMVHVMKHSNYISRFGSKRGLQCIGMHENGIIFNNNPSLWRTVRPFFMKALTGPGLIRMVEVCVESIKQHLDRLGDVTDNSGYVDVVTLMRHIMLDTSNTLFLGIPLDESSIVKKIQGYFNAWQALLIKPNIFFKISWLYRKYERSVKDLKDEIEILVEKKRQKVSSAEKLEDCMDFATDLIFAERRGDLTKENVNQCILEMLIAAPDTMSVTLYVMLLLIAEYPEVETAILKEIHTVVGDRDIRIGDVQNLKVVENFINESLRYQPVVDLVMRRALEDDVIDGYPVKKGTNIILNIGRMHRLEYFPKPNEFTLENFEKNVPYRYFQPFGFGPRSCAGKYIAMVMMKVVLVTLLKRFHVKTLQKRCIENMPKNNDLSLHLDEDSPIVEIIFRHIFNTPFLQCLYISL
Protocol: Immature female Wistar rats weighing 120 g were injected subcutaneously with 200 I.U. of pregnant mare's serum gonadotropin (PMSG). Ninety hours later, 1 mg/kg of the test compound dissolved in 0.5 ml 20% polyethyleneglycol in water was administered by oral gavage. Control animals received 20% polyethyleneglycol only. Two hours following drug or placebo administration the rats were killed by decapitation and trunk blood was collected on heparine. Plasma estradiol concentrations were measured by standard radio-immunological procedures. […]

[3] = 1 mg/kg by oral gavage, immature female Wistar rats 90 h after PMSG, plasma estradiol two hours after administration, relative to controls

| Structure (SMILES) | IC50 [1] | inhibition at 1 mg/kg [2, 3] | inhibition at 1 mg/kg ([2]; po) |
| --- | --- | --- | --- |
| CC(C)COn1nnc2ccc(C3CCCc4cncn43)cc21 (stereo not shown) [Compound 6] | 59.2 nM | 86% | – |
| CCn1nnc2ccc(C3CCCc4cncn43)cc21 (stereo not shown) [Compound 26, 1-ethyl-6-(5,6,7,8-tetrahydroimidazo[1,5-a]pyridin-5-yl)-1H-benzotriazole monohydrochloride] | 54 nM | 93% | – |
| c1cc2nnn(OCC3CC3)c2cc1C1CCCc2cncn21 (stereo not shown) [Compound 8, 1-(cyclopropylmethoxy)-6-(5,6,7,8-tetrahydroimidazo[1,5-a]pyridin-5-yl)-1H-benzotriazole mononitrate] | 31.9 nM | – | 87% |
| c1cc2nnn(C3CCCCC3)c2cc1C1CCCc2cncn21 (stereo not shown) [Compound 35] | 41 nM | 98% | – |
| Cn1nnc2ccc(C3CCCc4cncn43)cc21 (stereo not shown) [Compound 23] | 89.8 nM | 93% | – |
| CCCn1nnc2ccc(C3CCCc4cncn43)cc21 (stereo not shown) [Compound 31] | 43.5 nM | 96% | – |
| CC(C)Cn1nnc2ccc(C3CCCc4cncn43)cc21 (stereo not shown) [Compound 33] | 46 nM | 96% | – |
| CC(C)n1nnc2ccc(C3CCCc4cncn43)cc21 (stereo not shown) [Compound 25] | 55.6 nM | 91% | – |
| CC(C)(C)n1nnc2ccc(C3CCCc4cncn43)cc21 (stereo not shown) [Compound 32] | 54 nM | 95% | – |
| N#Cc1ccc(COn2nnc3ccc(C4CCCc5cncn54)cc32)cc1 (stereo not shown) [Compound 2] | 44.2 nM | 96% | – |
| OCCOn1nnc2ccc(C3CCCc4cncn43)cc21 (stereo not shown) [Compound 21] | < 1000 nM | 88% | – |
| c1cc2nnn(C3CCCC3)c2cc1C1CCCc2cncn21 (stereo not shown) [Compound 30] | 42.3 nM | 93% | – |
| COn1nnc2ccc(C3CCCc4cncn43)cc21 (stereo not shown) [Compound 9] | 57 nM | 89% | – |

Further molecules by falling IC50 [1], results first:

| IC50 [1] | inhibition at 1 mg/kg [2, 3] | Structure (SMILES) | inhibition at 1 mg/kg ([2]; po) |
| --- | --- | --- | --- |
| 39.3 nM | 87% | CCC(C)On1nnc2ccc(C3CCCc4cncn43)cc21 (stereo not shown) [Compound 20] | – |
| 37.5 nM | 94% | CCOn1nnc2ccc(C3CCCc4cncn43)cc21 (stereo not shown) [Compound 4] | – |
| 34.6 nM | 88% | N#CCCCCOn1nnc2ccc(C3CCCc4cncn43)cc21 (stereo not shown) [Compound 18] | – |
| 31.7 nM | 88% | CCCCOn1nnc2ccc(C3CCCc4cncn43)cc21 (stereo not shown) [Compound 10] | – |
| 31.7 nM | 89% | CCCCn1nnc2ccc(C3CCCc4cncn43)cc21 (stereo not shown) [Compound 24] | – |
| 29.5 nM | 80% | C#CCOn1nnc2ccc(C3CCCc4cncn43)cc21 (stereo not shown) [Compound 14] | – |
| 29.5 nM | 92% | CCCOn1nnc2ccc(C3CCCc4cncn43)cc21 (stereo not shown) [Compound 3] | – |
| 27.9 nM | 95% | C=CCOn1nnc2ccc(C3CCCc4cncn43)cc21 (stereo not shown) [Compound 5] | – |
| 25.4 nM | 86% | CCCCCCn1nnc2ccc(C3CCCc4cncn43)cc21 (stereo not shown) [Compound 27] | – |
| 25.2 nM | 85% | C=C(C)COn1nnc2ccc(C3CCCc4cncn43)cc21 (stereo not shown) [Compound 12] | – |
